According to patent US5120752A, “Cyclopropyl derivative lipoxygenase inhibitors” (Abbott Laboratories, priority 1990, dated 1992):

Assays:
[1] = molecular target: T1, 5-lipoxygenase (Rattus norvegicus, UniProt P12527); experiment: In vitro inhibition of 5-lipoxygenase (20,000×g supernatant from homogenized RBL-1 cells, radiolabeled arachidonic acid); assay type: biochemical; conditions: 20,000×g supernatant of RBL-1 cells; triplicate; read-out: IC50 (in vitro inhibitory potency against 5-lipoxygenase)
T1 construct: 20,000×g supernatant from 1.5 million homogenized RBL-1 cells; endogenous in cells; host or cells: RBL-1 cells (20,000×g supernatant of homogenate)
T1 sequence (P12527 1-673): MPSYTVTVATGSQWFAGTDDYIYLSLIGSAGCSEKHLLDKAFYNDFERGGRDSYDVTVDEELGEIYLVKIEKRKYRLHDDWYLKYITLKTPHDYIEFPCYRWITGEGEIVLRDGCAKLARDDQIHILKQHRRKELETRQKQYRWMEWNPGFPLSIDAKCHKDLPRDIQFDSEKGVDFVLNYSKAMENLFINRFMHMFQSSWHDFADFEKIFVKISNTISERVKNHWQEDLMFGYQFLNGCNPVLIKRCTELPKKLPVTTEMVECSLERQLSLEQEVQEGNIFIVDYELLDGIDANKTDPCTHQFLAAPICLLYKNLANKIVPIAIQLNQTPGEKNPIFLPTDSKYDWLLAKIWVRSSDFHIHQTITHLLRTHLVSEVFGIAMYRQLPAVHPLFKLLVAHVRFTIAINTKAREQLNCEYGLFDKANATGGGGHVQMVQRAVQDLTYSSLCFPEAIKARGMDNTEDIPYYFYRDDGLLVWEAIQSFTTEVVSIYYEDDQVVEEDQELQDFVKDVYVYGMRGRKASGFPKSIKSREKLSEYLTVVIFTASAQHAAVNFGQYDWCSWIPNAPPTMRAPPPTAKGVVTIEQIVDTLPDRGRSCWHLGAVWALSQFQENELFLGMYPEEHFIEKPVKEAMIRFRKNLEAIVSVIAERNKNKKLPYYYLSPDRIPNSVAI
Procedure: Assays to determine 5-lipoxygenase inhibitory activity were performed in […] incubations containing the 20,000×g supernatant from 1.5 million homogenized RBL-1 cells and various concentrations of the test compound. Reactions were initiated by addition of radiolabeled arachidonic acid and terminated by acidification and ether extraction. Reaction products were separated from nonconverted substrate by thin layer chromatography and measured by liquid scintillation spectroscopy. All incubations were performed in triplicate. Inhibition of 5-lipoxygenase activity was calculated as the ratio of the amount of product formed in the presence and absence of inhibitor. IC50 values (concentration of compound producing 50% enzyme inhibition) were calculated by linear regression analysis of percentage inhibition versus log inhibitor concentration plots. (Dyer, R .D.; Haviv, F.; Hanel, A. M.; Bornemier, D. A.; Carter, G. W. Fed. Proc., Fed. Am. Soc. Exp. Biol. 1984, 43, 1462A).

[2] = test system: leukotriene biosynthesis; experiment: Inhibition of leukotriene biosynthesis in vivo after oral administration, rat peritoneal anaphylaxis model; conditions: 200 μmol/kg oral (gavage), 1 h before antigen challenge, read-out: % Inhibition of Leukotrienes at 200 μmol/kg oral dose
Procedure: Inhibition of the biosynthesis of leukotrienes in vivo after oral administration of representative test compounds of this invention was determined using a rat peritoneal anaphylaxis model in a similar manner as that described by Young and coworkers (Young, P. R.; Dyer, R. D.; Carter, G. W. Fed. Proc., Fed. Am. Soc. Exp. Biol. 1985, 44, 1185). In this model rats were injected intraperitoneally (ip) with rabbit antibody to bovine serum albumin (BSA) and three hours later injected ip with BSA to induce an antgen-antibody response. Rats were sacrificed 15 minutes after this challenge and the peritoneal fluids were collected and analyzed for leukotriene levels. Test compounds were administered by gavage one hour prior to the antigen challenge. Percent inhibition values were determined by comparing the treatment group to the mean of the control group. The results of this assay, for representative compounds of the present invention, at an oral dose level of […] are presented in Table 2, and at an oral dose of […] in Table 3.

Compound	IC50 [1]	inhibition in vivo at 200 µmol/kg [2]
NC(=O)N(O)C[C@@H]1C[C@H]1CCc1ccccc1 (relative stereo) [Example 33, N-(1-trans-(2-(2-phenylethyl)cyclopropyl)methyl)-N-hydroxyurea]	–	84%
NC(=O)N(O)C[C@@H]1C[C@H]1c1ccc(Br)cc1 (relative stereo) [Example 35, N-(1-trans-(2-(4-bromophenyl)cyclopropyl)methyl)-N-hydroxyurea]	–	99%
NC(=O)N(O)C[C@@H]1C[C@H]1c1ccccc1 (relative stereo) [Example 4, N-1-(trans-(2-phenylcyclopropyl)methyl)-N-hydroxyurea]	1800 nM	97%
CC(C)Cc1ccc([C@@H]2C[C@H]2C(C)N(O)C(N)=O)cc1 (stereo partly drawn) [Example 19, N-(1-trans-(2-(4-(2-methyl-1-propyl)phenyl)cyclopropyl)-ethyl)-N-hydroxyurea]	–	64%
CC(=O)N(O)C[C@@H]1C[C@H]1c1ccccc1 (relative stereo) [Example 27, N-(1-trans-(2-phenylcyclopropyl)methyl)-N-hydroxyacetamide]	1700 nM	99%
CC(N(O)C(N)=O)[C@]1(C)C[C@H]1c1ccccc1 (stereo partly drawn) [Example 5, N-(1-trans-(1-methyl-2-phenylcyclopropyl)ethyl)-N-hydroxyurea]	–	90%
NC(=O)N(O)C[C@@H]1C[C@H]1c1cccc(Oc2ccccn2)c1 (relative stereo) [Example 48, N-(1-trans-(2-(3-(2-pyridyloxy)phenyl)cyclopropyl)methyl)-N-hydroxyurea]	400 nM	–
Cc1ccc([C@@H]2C[C@H]2CN(O)C(N)=O)cc1 (relative stereo) [Example 47, N-(1-trans-(2-(4-methylphenyl)cyclopropyl)methyl)-N-hydroxyurea]	300 nM	100%
NC(=O)N(O)C[C@@H]1C[C@H]1c1cc2ccccc2s1 (relative stereo) [Example 12]	–	68%
CC([C@@H]1C[C@H]1c1ccc(Oc2ccccc2)cc1)N(O)C(N)=O (stereo partly drawn) [Example 2, N-(1-trans-(2-(4-phenoxyphenyl)cyclopropyl)ethyl)-N-hydroxyurea]	100 nM	–
CC([C@@H]1C[C@H]1CCc1ccccc1)N(O)C(N)=O (stereo partly drawn) [Example 32, N-(1-trans-(2(2-phenylethyl)cyclopropyl)ethyl)-N-hydroxyurea]	100 nM	–
CNC(=O)N(O)C[C@@H]1C[C@H]1c1cc2ccccc2s1 (relative stereo) [Example 13]	–	76%
CC(=O)N(O)C(C)[C@@H]1C[C@H]1c1ccc(C)cc1 (stereo partly drawn) [Example 59, N-(1-trans-(2-(4-methylphenyl)cyclopropyl)ethyl)-N-hydroxyacetamide]	700 nM	–
COc1ccc(Oc2cccc([C@@H]3C[C@H]3CN(O)C(N)=O)c2)cc1 (relative stereo) [Example 53, N-(1-trans-(2-(3-(4-methoxyphenoxy)phenyl)cyclopropyl)-methyl)-N-hydroxyurea]	100 nM	–
Cc1ccc([C@@H]2C[C@H]2C(C)N(O)C(N)=O)cc1 (stereo partly drawn) [Example 39, N-(1-trans-(2-(4-methylphenyl)cyclopropyl)ethyl)-N-hydroxyurea]	–	82%
CC([C@H]1[C@H](c2ccccc2)C1(C)C)N(O)C(N)=O (some centres unmarked) [Example 24]	100 nM	–
COc1ccc2cc([C@@H]3C[C@H]3CN(O)C(N)=O)ccc2c1 (relative stereo) [Example 18, N-(1-trans-(2-(6-methoxy-2-naphthyl)cyclopropyl)methyl)-N-hydroxyurea]	200 nM	–
CC([C@@H]1C[C@H]1c1cc2ccccc2s1)N(O)C(N)=O (stereo partly drawn) [Example 1, N-(1-trans-(2-(benzo[b]thien-2-yl)cyclopropyl)ethyl)-N-hydroxyurea]	–	62%

Further compounds by falling IC50 [1], results first:

IC50 [1]	Compound	inhibition in vivo at 200 µmol/kg [2]
7600 nM	Cc1cccc([C@@H]2C[C@H]2CN(O)C(N)=O)n1 (relative stereo) [Example 62, N-(1-trans-(2-(6-methyl-2-pyridyl)cyclopropyl)methyl)-N-hydroxyurea]	–
5700 nM	NC(=O)N(O)C[C@@H]1C[C@H]1c1ccncc1 (relative stereo) [Example 43, N-(1-trans-(2-(4-pyridyl)cyclopropyl)methyl)-N-hydroxyurea]	–
1800 nM	CC(C1CC1c1ccccc1)N(O)C(N)=O (stereo not drawn) [Example 9, N-(1-cis-(2-phenylcyclopropyl)ethyl)-N-hydroxyurea]	61%
1600 nM	CC([C@@H]1C[C@H]1c1ccccc1)N(O)C(N)=O (stereo partly drawn) [Example 3, N-(1-trans-(2-phenylcyclopropyl)ethyl)-N-hydroxyurea]	100%
1600 nM	NC(=O)N(O)C[C@@H]1C[C@H]1c1cccnc1 (relative stereo) [Example 42]	–
900 nM	COc1ccc([C@@H]2C[C@H]2C(C)N(O)C(N)=O)cc1 (stereo partly drawn) [Example 22, N-(1-trans-(2-(4-methoxyphenyl)cyclopropyl)ethyl)-N-hydroxyurea]	96%
440 nM	CC(C)Oc1ccc([C@@H]2C[C@H]2CN(O)C(N)=O)cc1Br (relative stereo) [Example 66, N-(1-trans-(2-(3-bromo-4-isopropoxyphenyl)cyclopropyl)-methyl)-N-hydroxyurea]	–
400 nM	CC(C)Oc1ccc([C@@H]2C[C@H]2CN(O)C(N)=O)cc1 (relative stereo) [Example 67, N-(1-trans-(2-(4-isopropoxyphenyl)cyclopropyl)methyl)-N-hydroxyurea]	–
400 nM	CC(Oc1ccc([C@@H]2C[C@H]2C(C)N(O)C(N)=O)cc1)c1ccccc1 (stereo partly drawn) [Example 7, N-(1-trans-(2-(4-(1-phenylethoxy)phenyl)cyclopropyl)ethyl)-N-hydroxyurea]	–
300 nM	CC([C@@H]1C[C@H]1c1cc2ccccc2s1)N(O)C(N)=O (single isomer, unassigned) [Example 1a, N-(1-trans-(2-(benzo[b]thien-2-yl)cyclopropyl)ethyl)-N-hydroxyurea]	–
100 nM	CC(=O)N(O)C(C)[C@@H]1C[C@H]1c1cc2ccccc2s1 (stereo partly drawn) [Example 28, N-(1-trans-(2-(benzo[b]thien-2-yl)cyclopropyl)ethyl)-N-hydroxyacetamide]	73%
100 nM	CC(Oc1ccc([C@H]2[C@H](CN(O)C(N)=O)C2(C)C)cc1)c1ccccc1 (some centres unmarked) [Example 25]	52%
100 nM	NC(=O)N(O)C[C@@H]1C[C@H]1c1cccc(Oc2ccc(F)cc2)c1 (relative stereo) [Example 50, N-(1-trans-(2-(3-(4-fluorophenoxy)phenyl)cyclopropyl)methyl)-N-hydroxyurea]	–
100 nM	CC([C@@H]1C[C@H]1c1ccc(Br)cc1)N(O)C(N)=O (stereo partly drawn) [Example 37, N-(1-trans-(2-(4-bromophenyl)cyclopropyl)ethyl)-N-hydroxyurea]	93%
100 nM	CN(O)C(=O)[C@@H]1C[C@H]1c1cccc(Oc2ccccc2)c1 (relative stereo) [Example 30]	–
80 nM	CC(C)Cc1ccc([C@@H]2C[C@H]2CN(O)C(N)=O)cc1 (relative stereo) [Example 20, N-(1-trans-(2-(4-(2-methyl-1-propyl)phenyl)cyclopropyl)-methyl)-N-hydroxyurea]	–
60 nM	Cc1ccc(Oc2cccc([C@@H]3C[C@H]3CN(O)C(N)=O)c2)cc1 (relative stereo) [Example 51, N-(1-trans-(2-(3-(4-methylphenoxy)phenyl)cyclopropyl)methyl)-N-hydroxyurea]	–
